Laboratory results reported in patent publication US20220339135A1, “COMPOSITIONS AND METHODS FOR MODULATING AN INFLAMMATORY RESPONSE” (Enzychem Lifesciences Corporation, priority 2019, published 2022).

Experiments:
[1] = tested on: intracellular calcium in dHL-60 cells; experiment: Fluo-4 calcium assay; assay type: cell-based, human
Method: Human leukemia line (HL-60) cells were differentiated (dHL-60) to neutrophil-like cells in the culture medium with the addition of 1.3% DMSO (Sigma) for 5 days in a humidified atmosphere at 37° C. without changing the medium. dHL-60 cells (2×10^5 cells/mL) were loaded with 5 μM fluo-4 AM for 45 minutes and washed three times with warmed modified (37° C.) HBSS buffer (137.93 mM NaCl, 5.33 mM KCl, 2 mM CaCl2), 1 mM MgSO4, 2.38 mM HEPES, 5.5 mM glucose, pH to 7.4). The cells were seeded on black-walled 96-well plates and then treated with vehicle (0.1% DMSO), ionomycin (5 μM; positive control) or PLAG (100 μg/mL) just before measurement. Baseline fluorescence was measured before treatment, and fluorescence was read every 20 s for 700 s using an excitation wavelength of 494 nm, an emission wavelength of 516 nm in a FlexStation 3 microplate reader (Molecular Devices). Fluorescence values were reported as F/Fo according to the calculation: [ΔF=(494 nm)f/(516 nm)f−(494 nm)0/(516 nm)0]. For studies in 0 mM external calcium, the cells were loaded as mentioned earlier. After being loaded, the cells were washed four times with calcium-free HBSS. The remainder of the study was carried out in calcium-free HBSS.
(§1) HL-60 cells were differentiated (dHL-60) to neutrophil-like cells in the culture medium with the addition of 1.3% DMSO (Sigma) for 5 days in a humidified atmosphere at 37° C. without changing the medium. dHL-60 cells (2×10^5 cells/mL) were loaded with 5 μM fluo-4 AM for 45 minutes and washed three times with warmed modified (37° C.) HBSS buffer (137.93 mM NaCl, 5.33 mM KCl, 2 mM CaCl2, 1 mM MgSO4, 2.38 mM HEPES, 5.5 mM glucose, pH to 7.4). […] Baseline fluorescence was measured before treatment, and fluorescence was read every 20 seconds for 700 seconds using an excitation wavelength of 494 nm, an emission wavelength of 516 nm in a FlexStation 3 microplate reader (Molecular Devices). Fluorescence values were reported as F/Fo according to the calculation: [ΔF=(494 nm)f/(516 nm)f−(494 nm)0/(516 nm)0]. […]
as §1, with “s” for “seconds”, “Devices).” for “Devices). Fluorescence values were reported as F/Fo according to the calculation: [ΔF=(494 nm)f/(516 nm)f−(494 nm)0/(516 nm)0].”

skin erythema injury = experiment: Radiation-induced skin erythema in mice; assay type: in vivo; settings: 8Gy TBI, PLAG 250 mg/kg daily 17 days
Method: 9 weeks Balb/c mice were divided into two groups: 1) radiated group (8Gy of TBI by γ-ray) and 2) PLAG (250 mg/kg of PLAG daily for 17 days) administrated group with radiation (8Gy of TBI) (FIG. 38A).

IMQ-induced psoriasis = experiment: IMQ-induced psoriasis-like skin inflammation in mice; assay type: in vivo; settings: PLAG 250 mg/kg/day orally, 5 days
Text: Vaseline (Unilever, United Kingdom) was used as a control vehicle cream. […] Control (non-treated) and IMQ-treated groups were administrated orally with the same PBS daily. Psoriasis was scored by a blinded investigator using published criteria based on the following parameters: erythema, scaling, and thickening. […] The tissue sections were stained with hematoxylin and eosin (H&E). For IHC analyses, back skin serial sections were cut and mounted on charged glass slides (Superfrost Plus; Fisher Scientific, Rochester, N.Y., USA). The sections were deparaffinized and then treated with 3% hydrogen peroxide in methanol to quench the endogenous peroxidase activity. […] The sections were incubated with the primary anti-mouse IL-17 (abcam) antibody (1:100) or rat anti-mouse neutrophil (NIMP-R14, Thermo Fisher Scientific Inc.) antibody (1:100) at 4° C. overnight. […] On Day 5, mice were sacrificed and the isolated tissues were analyzed (FIG. 10A). On Day 5, mice were sacrificed and the isolated back skin tissues of control, IMQ treated and IMQ/PLAG co-treated mice were analyzed (FIG. 10B). […] The scoring of control, IMQ treated, and IMQ/PLAG co-treated mice calculated by a blinded investigator using published criteria based on the following parameters: erythema, scaling, and thickening (FIG. 10C). IMQ-treated back skin and one ear were isolated and skin thickness was measured (FIGS. 10D and 10E). […]

Question: Which results are given for `CCCCC/C=C\C/C=C\CCCCCCCC(=O)OC(COC(C)=O)COC(=O)CCCCCCCCCCCCCCC` (racemic) [PLAG, 1-palmitoyl-2-linoleoyl-3-acetylglycerol]?
Answer: cytosolic calcium of dHL-60 cells ([1]; PLAG 100 μg/mL, ionomycin 5 μM): increased; intracellular calcium levels, co-treatment with imiquimod ([1]; vs imiquimod alone, extracellular calcium-free and containing condition): significantly increased; erythema on mouse foot and tail (skin erythema injury): significantly weak or no erythema; IMQ-induced psoriasis symptoms (IMQ-induced psoriasis): effectively resolved
